{"source": "patent US10342776B2", "about": "“Compositions and methods for controlling infections” (priority 2004, dated 2019)", "key": {"[1]": {"test_system": "Gardnerella vaginalis", "assay": "G. vaginalis growth on chocolate agar plates with GML", "format": "cell-based", "details": "24 hours", "method": "(§1) Cells (1.2×10^7/ml in a total volume of 25 ml of dialyzable beef heart medium) of a recent clinical isolate of the gram negative rod Gardnerella vaginalis in vitro were cultured for various lengths of time with various concentrations of GML. At the various time points, the concentration of bacteria in the cultures were determined by colony counting on chocolate agar plates. GML at concentrations as low as 5 μg/ml were bactericidal to G. vaginalis. […] This finding points to the likely efficacy of GML in vivo. Moreover, GML (5 μg/ml or greater) inhibited growth of G. vaginalis plated (0.1 ml at 1.2×10^7/ml) onto chocolate agar plates (Table 3; data obtained after 24 hours of culturing)."}, "[2]": {"test_system": "Haemophilus influenzae (two clinical isolates)", "assay": "Haemophilus influenzae growth on chocolate agar plates with GML", "format": "cell-based", "method": "G. vaginalis was formerly designated Haemophilus vaginalis. This consideration raised the possibility that GML would inhibit the growth of Haemophilus influenzae. Two recent clinical isolates of encapsulated (capsule type not typable) Haemophilus influenzae (0.1 ml at 1.0×10^7/ml plated) organisms were tested for ability to grow on chocolate agar plates with no or various concentrations of GML (Table 4; data obtained after 24 of culture). The growth of both strains was inhibited at GML concentrations of 10 μg/ml or greater."}, "[3]": {"test_system": "Candida albicans (five clinical isolates)", "assay": "Growth inhibition of five other clinical isolates of Candida albicans in liquid culture (absorbance at 600 nm, CFU/ml)", "format": "cell-based", "details": "for average CFU/ml after culturing: 6 hours, start about 10^6 CFU/ml", "method": "Five clinical isolates of Candida albicans (separate from those tested in experiments described in Example 2) were tested for susceptibility to growth inhibition by GML. The data in FIG. 3 are the means of values obtained by separately testing each of the five clinical isolates. The experiments were performed in liquid culture as described in Example 2 except that, instead of measuring the number of organisms in the cultures by plating on agar plates, values of absorbance at 600 nm were determined at the indicated time points. An absorbance value of 6.5 corresponds to about 5×10^8 CFU/ml of Candida albicans. The growth of all of the isolates was inhibited by GML. Culturing for 6 hours 0.1 ml aliquots of the isolates (containing about 10^6 CFU/ml) in 100 μg/ml and 500 μg/ml of GML yielded an average of about 700 CFU/ml and about 400 CFU/ml, respectively."}, "[4]": {"test_system": "Candida albicans (clinical isolates, yeast phase)", "assay": "Yeast phase Candida albicans liquid cultures with GML, CFU/ml by plating", "format": "cell-based", "method": "The Candida albicans samples that were tested in the experiments described in Examples 2 and 3 were recent clinical isolates. The strains were of low passage and were maintained on Todd Hewitt (Difco Laboratories, Detroit, Mich.) agar plates. The organisms were transferred to 25 ml Todd Hewitt broth cultures in 125 ml Erlenmeyer flasks and grown overnight at 37° C. in 7% CO2 with shaking at 200 revolutions per minute (RPM). The next morning the organisms were transferred to new 125 ml flasks containing 25 ml Todd Hewitt medium at a final concentration of 1×10^6 colony forming units (CFU)/ml. […] The GML was made up at a concentration of 100,000 μg/ml in absolute ethanol for addition to the flasks. […] The flasks were cultured for up to 24 hours at 37° C. in 7% CO2 with shaking at 200 revolutions per minute. […] This experiment was performed twice.\nThe effect of growing yeast phase organisms of a clinical isolate of Candida albicans in the presence of GML was tested in liquid cultures as described in Example 1. […] The GML-mediated killing effect was not seen in cultures containing 20 and 10 μg/ml of GML. […] The experiment was repeated with identical results. The experiment was also carried out with a second clinical isolate of Candida albicans."}, "[5]": {"test_system": "Staphylococcus aureus", "details": "earlier work, U.S. application Ser. No. 10/986,512; cited from earlier work"}, "[6]": {"test_system": "Haemophilus influenzae", "assay": "Kinetic study of Haemophilus influenzae growth in Todd Hewitt medium with GML, CFU/ml", "format": "cell-based", "details": "GML 50 μg/ml or 100 μg/ml; liquid culture up to 24 hours", "method": "The strain was inoculated (at a concentration of 1.2×10^6 CFU/ml) into 50 ml of Todd Hewitt medium containing various concentrations of GML. The cultures were grown for 24 hours in an atmosphere of 7% carbon dioxide (balance air) with shaking at 100 RPM. At designated times samples were removed, and colony forming units (CFU) per milliliter were determined by plate counts on chocolate agar plates."}, "[7]": {"test_system": "Salmonella", "assay": "Direct toxicity of GML to Salmonella", "format": "cell-based", "excerpt": "(§2) Thus, it was surprising to discover that a number of other bacterial genera (see below) were highly sensitive to the direct toxic effects of GML."}, "[8]": {"test_system": "Penicillium fungi", "assay": "Mycelium formation on Todd Hewitt agar plates containing GML, Penicillium", "format": "cell-based", "details": "for mycelium growth on plates: 36 hours, room temperature", "method": "Organisms (at the spore phase) of Aspergillus and Penicillium fungi obtained from nature were separately streaked on Todd Hewitt agar plates containing various concentrations of GML. The plates were incubated at room temperature for 36 hours after which mycelium growth was determined by direct visual examination. […] In contrast, the organisms grew on plates containing 0 and 50 μg/ml."}, "[9]": {"test_system": "Lactobacillus (L. crispatis)", "assay": "In vitro growth of L. crispatis bacteria with GML", "format": "cell-based", "excerpt": "as §2"}, "[10]": {"test_system": "Neisseria gonorrheae", "details": "earlier work, U.S. application Ser. No. 10/986,512; cited from earlier work"}, "[11]": {"test_system": "Gardnerella vaginalis (clinical isolate)", "assay": "G. vaginalis liquid culture with GML in the presence of 10% fetal calf serum", "format": "cell-based", "details": "for Cells/ml (×10^7) at 24 hours: 10% fetal calf serum", "method": "as §1"}, "[12]": {"details": "first clinical isolate, 50, 200 and 1000 μg/ml GML, by 4 hours"}, "[13]": {"details": "GML concentrations up to 100 μg/ml"}}}
{"smiles": "CCCCCCCCCCCC(=O)OCC(O)CO", "note": "(centres unmarked) [GML, glycerol monolaurate]", "values": [{"measurement": "GML concentration that inhibited growth of G. vaginalis", "setting": "[1]", "value": "≥ 5", "unit": "µg/mL"}, {"measurement": "Growth Characteristics", "setting": "[1]; GML 1 μg/ml", "value": "Confluent growth"}, {"measurement": "Growth Characteristics", "setting": "[1]; GML 5 μg/ml", "value": "No visible growth"}, {"measurement": "Growth Characteristics", "setting": "[1]; GML 10 μg/ml", "value": "No visible growth"}, {"measurement": "Growth Characteristics", "setting": "[1]; GML 20 μg/ml", "value": "No visible growth"}, {"measurement": "Growth Characteristics", "setting": "[1]; GML 50 μg/ml", "value": "No visible growth"}, {"measurement": "Growth Characteristics", "setting": "[1]; GML 100 μg/ml", "value": "No visible growth"}, {"measurement": "Growth Characteristics (Strain 1)", "setting": "[2]; GML 1 μg/ml", "value": "Confluent growth"}, {"measurement": "Growth Characteristics (Strain 2)", "setting": "[2]; GML 1 μg/ml", "value": "Confluent growth"}, {"measurement": "Growth Characteristics (Strain 1)", "setting": "[2]; GML 5 μg/ml", "value": "Confluent growth"}, {"measurement": "Growth Characteristics (Strain 2)", "setting": "[2]; GML 5 μg/ml", "value": "Confluent growth"}, {"measurement": "Growth Characteristics (Strain 1)", "setting": "[2]; GML 10 μg/ml", "value": "No visible growth"}, {"measurement": "Growth Characteristics (Strain 2)", "setting": "[2]; GML 10 μg/ml", "value": "No visible growth"}, {"measurement": "Growth Characteristics (Strain 1)", "setting": "[2]; GML 20 μg/ml", "value": "No visible growth"}, {"measurement": "Growth Characteristics (Strain 2)", "setting": "[2]; GML 20 μg/ml", "value": "No visible growth"}, {"measurement": "Growth Characteristics (Strain 1)", "setting": "[2]; GML 50 μg/ml", "value": "No visible growth"}, {"measurement": "Growth Characteristics (Strain 2)", "setting": "[2]; GML 50 μg/ml", "value": "No visible growth"}, {"measurement": "Growth Characteristics (Strain 1)", "setting": "[2]; GML 100 μg/ml", "value": "No visible growth"}, {"measurement": "Growth Characteristics (Strain 2)", "setting": "[2]; GML 100 μg/ml", "value": "No visible growth"}, {"measurement": "GML concentration at which growth was inhibited", "setting": "[2]; both strains, chocolate agar plates", "value": "≥ 10", "unit": "µg/mL"}, {"measurement": "average CFU/ml after culturing", "setting": "[3]; 100 μg/ml GML", "value": "about 700 CFU/ml"}, {"measurement": "average CFU/ml after culturing", "setting": "[3]; 500 μg/ml GML", "value": "about 400 CFU/ml"}, {"measurement": "growth of the isolates", "setting": "[3]; five clinical isolates, liquid culture, absorbance at 600 nm", "value": "inhibited"}, {"measurement": "growth in culture", "setting": "[4]; first clinical isolate, 20 and 10 μg/ml GML", "value": "grew to almost the same level as in the control cultures"}, {"measurement": "organisms detectable in culture", "setting": "[4]; [12]", "value": "no organisms were detectable"}, {"measurement": "reduction in CFU/ml", "setting": "[4]; [12]", "value": "> 5", "unit": "log"}, {"measurement": "number of organisms in culture compared to 0 μg/ml", "setting": "[4]; second clinical isolate, 50 μg/ml GML, 2, 4 and 6 hours", "value": "reduced at all time intervals sampled"}, {"measurement": "organisms detectable in culture", "setting": "[4]; second clinical isolate, 100 and 500 μg/ml GML, by 2 hours", "value": "no organisms were detectable"}, {"measurement": "resistance to direct toxic effects of GML", "setting": "[5]", "value": "relatively resistant"}, {"measurement": "growth of H. influenza organisms", "setting": "[6]", "value": "inhibited the growth"}, {"measurement": "resistance to direct toxicity by GML", "setting": "[7]", "value": "relatively resistant"}, {"measurement": "mycelium growth on plates", "setting": "[8]; 50 μg/ml GML", "value": "grew"}, {"measurement": "colony size on plates", "setting": "[8]; 50 μg/ml GML, about 4 days compared to 36 hours", "value": "larger in size"}, {"measurement": "mycelium growth on plates", "setting": "[8]; 100 and 500 μg/ml GML", "value": "failed to grow"}, {"measurement": "visible colonies on plates", "setting": "[8]; 100 and 500 μg/ml GML, about 4 days", "value": "no visible colonies"}, {"measurement": "resistance to direct toxicity by GML", "setting": "[9]", "value": "relatively resistant"}, {"measurement": "effect on in vitro growth", "setting": "[9]; GML concentrations up to 50 μg/ml", "value": "had no effect"}, {"measurement": "effect on in vitro growth", "setting": "[9]; [13]", "value": "delayed (but did not stop) its growth"}, {"measurement": "effect on stationary phase survival", "setting": "[9]; [13]", "value": "extended their stationary phase survival"}, {"measurement": "resistance to direct toxic effects of GML", "setting": "[10]", "value": "relatively resistant"}, {"measurement": "Cells/ml (×10^7) at 24 hours", "setting": "[11]; GML 1 μg/ml", "value": "210 Cells/ml (×10^7)"}, {"measurement": "Cells/ml (×10^7) at 24 hours", "setting": "[11]; GML 5 μg/ml", "value": "201 Cells/ml (×10^7)"}, {"measurement": "Cells/ml (×10^7) at 24 hours", "setting": "[11]; GML 10 μg/ml", "value": "160 Cells/ml (×10^7)"}, {"measurement": "Cells/ml (×10^7) at 24 hours", "setting": "[11]; GML 20 μg/ml", "value": "88 Cells/ml (×10^7)"}, {"measurement": "Cells/ml (×10^7) at 24 hours", "setting": "[11]; GML 50 μg/ml", "value": "1.8 Cells/ml (×10^7)"}, {"measurement": "Cells/ml (×10^7) at 24 hours", "setting": "[11]; GML 100 μg/ml", "value": "<0.03 Cells/ml (×10^7)"}, {"measurement": "inhibition of growth of G. vaginalis", "setting": "[11]; medium supplemented with fetal calf serum", "value": "effective in inhibiting the growth"}]}
